Results published in publication PMC11350787, “Antimicrobial Properties and Cytotoxicity of LL-37-Derived Synthetic Peptides to Treat Orthopedic Infections” (Antibiotics, 2024).
Each block holds one compound with its values, some of them ahead of it. Peptide text beside a SMILES is read from it.

What was measured:
E. coli ATCC 25922 = experiment: microbe, parasite or virus in culture; conditions: for Minimum Inhibitory Concentration (MIC): ATCC 25922, 18 h; for Minimum Bactericidal Concentration (MBC): ATCC 25922, 24 h
Text: (§1) A total of 18 bacterial strains relevant to orthopedic infections were used for microbiological tests, including 8 ATCC (American Type Culture Collection, ATCC, Manassas, VA, USA) and 10 clinical isolates (CI) from the Laboratory of Clinical Chemistry and Microbiology, IRCCS Ospedale Galeazzi–Sant’Ambrogio of Milan (Italy) strain collection. The ATCC strains were used for the first screening (MIC/MBC) of all the AMPs produced, while the clinical isolates were used for further MIC/MBC assays on selected AMPs. Among CI, S. epidermidis GOI1153754-03-14 has been already characterized and used in previous studies. All the strains were stocked at −80°C and working stocks were stored at −20 °C. At the occurrence, the bacteria were resuscitated in Brain Hearth Infusion (BHI, Millipore, Milan, Italy) broth at 37 °C for 18 h from the working stocks.
(§2) To determine the minimum inhibitory concentration (MIC) and the minimum bactericidal concentration (MBC), ISO20776-1 and Clinical and Laboratory Standards Institute guidelines were followed. A commercial synthetic LL-37 (Aurogene, Rome, Italy) was used as the control in the MIC and MBC assays. A stock solution of each AMP was prepared at 600 µg/mL to achieve a final concentration of 300 µg/mL. […] The MIC was determined according to the aforementioned standard guidelines. The MBC was determined by plating 2 µL of culture from each well of the MIC plates on a Tryptic Soy Agar (TSA, Millipore, Milan, Italy) plate and incubated for 24 h at 37 °C. The concentration at which there was no growth was recorded as MBC. Each experiment was carried out in triplicate. Representative MIC and MBC values for vancomycin and gentamicin were assessed to offer a benchmark comparison for the AMPs. Quality control was conducted with Staphylococcus aureus ATCC 29,213 and vancomycin according to EUCAST guidelines.

P. aeruginosa ATCC 27853 = experiment: microbe, parasite or virus in culture; conditions: for Minimum Inhibitory Concentration (MIC): ATCC 27853, 18 h; for Minimum Bactericidal Concentration (MBC): ATCC 27853, 24 h
Text: as §1, §2

S. aureus ATCC 25923 = experiment: microbe, parasite or virus in culture; conditions: for Minimum Inhibitory Concentration (MIC): ATCC 25923, 18 h; for Minimum Bactericidal Concentration (MBC): ATCC 25923, 24 h
Text: as §1, §2

S. aureus ATCC 43300 = experiment: microbe, parasite or virus in culture; conditions: for Minimum Inhibitory Concentration (MIC): ATCC 43300, 18 h; for Minimum Bactericidal Concentration (MBC): ATCC 43300, 24 h
Text: as §1, §2

S. aureus ATCC 49230 = experiment: microbe, parasite or virus in culture; conditions: for Minimum Inhibitory Concentration (MIC): ATCC 49230, 18 h; for Minimum Bactericidal Concentration (MBC): ATCC 49230, 24 h
Text: as §1, §2

[1] = test system: S. epidermidis ATCC 14990; experiment: microbe, parasite or virus in culture; conditions: for Minimum Inhibitory Concentration (MIC): ATCC 14990, 18 h; for Minimum Bactericidal Concentration (MBC): ATCC 14990, 24 h
Text: as §1, §2

[2] = test system: S. epidermidis ATCC 35984; experiment: microbe, parasite or virus in culture; conditions: for Minimum Inhibitory Concentration (MIC): ATCC 35984, 18 h; for Minimum Bactericidal Concentration (MBC): ATCC 35984, 24 h
Text: as §1, §2

ATCC strains = conditions: 18 h
Text: as §1, §2

[3] = test system: S. epidermidis GOI1153754-03-14 (CI); experiment: microbe, parasite or virus in culture; conditions: GOI1153754-03-14 (CI, 18 h)
Text: as §1, §2

E. coli Eco53 (CI) = conditions: Eco53 (CI, 18 h)
Text: as §1, §2

E. coli Eco61 (CI) = conditions: Eco61 (CI, 18 h)
Text: as §1, §2

E. coli Eco75 (CI) = conditions: Eco75 (CI, 18 h)
Text: as §1, §2

P. aeruginosa Pae2 (CI) = conditions: Pae2 (CI, 18 h)
Text: as §1, §2

P. aeruginosa Pae61 (CI) = conditions: Pae61 (CI, 18 h)
Text: as §1, §2

P. aeruginosa Pae82 (CI) = conditions: Pae82 (CI, 18 h)
Text: as §1, §2

S. aureus Sau221 (CI) = conditions: Sau221 (CI, 18 h)
Text: as §1, §2

S. aureus Sau39 (CI) = conditions: Sau39 (CI, 18 h)
Text: as §1, §2

S. aureus Sau89 (CI) = conditions: Sau89 (CI, 18 h)
Text: as §1, §2

Staphylococci = conditions: 18 h
Text: as §1, §2

red blood cells (RBC) = experiment: Hemolytic activity assessment; assay type: cell-based; conditions: at 18.75 µg/mL; human RBC suspension in PBS, 1 h 37 °C, absorbance 414 nm; 0.1% Triton-X100 = 100%
Description: The pellet containing erythrocytes was washed 3 times in PBS centrifuging at 700× g for 8 min at RT. Finally, 40 µL of pellet containing red blood cells (RBC) was diluted in 8 mL of PBS, obtaining a 0.5% v/v RBC suspension.
The 96-well V plate was incubated at 37 °C for 1 h, then centrifuged at 1000× g for 10 min, and the supernatant (60 µL) was transferred to a 96-well flat bottom microplate for the absorption analysis on a microplate reader at 414 nm. The positive control (PC, 100% hemolysis) consisted of 0.1% Triton-X100 in PBS (pH 7.4), while PBS alone served as the negative control (NC, 0% hemolysis). Each hemolysis activity assessment test was carried out in two replicates and repeated three times.
NCs and PCs were averaged, then results were normalized to the average of PC and NC according to the following formula: % Hemolysis = (Abs treated − Abs NC/Abs PC − Abs NC) × 100. The hemolytic activity was also tested on TFA to exclude any toxicity caused by the buffer.

- Minimum Inhibitory Concentration (MIC) (E. coli ATCC 25922): 75.00 µg/mL
- Minimum Inhibitory Concentration (MIC) (P. aeruginosa ATCC 27853): 300.00 µg/mL
- Minimum Inhibitory Concentration (MIC) (S. aureus ATCC 25923): 300.00 µg/mL
- Minimum Inhibitory Concentration (MIC) (S. aureus ATCC 43300): 300.00 µg/mL
- Minimum Inhibitory Concentration (MIC) (S. aureus ATCC 49230): >300.00 µg/mL
- Minimum Inhibitory Concentration (MIC) [1]: 150.00 µg/mL
- Minimum Inhibitory Concentration (MIC) [2]: 150.00 µg/mL
SMILES: CC[C@H](C)[C@H](NC(=O)[C@H](CCCNC(=N)N)NC(=O)[C@H](CCC(N)=O)NC(=O)[C@@H](NC(=O)[C@@H](NC(=O)[C@H](CCCNC(=N)N)NC(=O)[C@H](CCCCN)NC(=O)[C@@H](N)Cc1ccccc1)[C@@H](C)CC)C(C)C)C(=O)N[C@@H](CCCCN)C(=O)N[C@@H](CC(=O)O)C(=O)N[C@@H](Cc1ccccc1)C(=O)N[C@@H](CC(C)C)C(=O)N[C@@H](CCCNC(=N)N)C(N)=O [FK-13] (H-FKRIVQRIKDFLR-NH2)
- Minimum Bactericidal Concentration (MBC) (E. coli ATCC 25922): 150.00 µg/mL
- Minimum Bactericidal Concentration (MBC) (P. aeruginosa ATCC 27853): 300.00 µg/mL
- Minimum Bactericidal Concentration (MBC) (S. aureus ATCC 25923): >300.00 µg/mL
- Minimum Bactericidal Concentration (MBC) (S. aureus ATCC 43300): >300.00 µg/mL
- Minimum Bactericidal Concentration (MBC) (S. aureus ATCC 49230): >300.00 µg/mL
- Minimum Bactericidal Concentration (MBC) [1]: 150.00 µg/mL
- Minimum Bactericidal Concentration (MBC) [2]: 150.00 µg/mL
- MBC values over all ATCC strains tested (ATCC strains): greater than 300 µg/mL

- Minimum Inhibitory Concentration (MIC) (E. coli ATCC 25922): 9.38 µg/mL
- Minimum Inhibitory Concentration (MIC) (P. aeruginosa ATCC 27853): 18.75 µg/mL
- Minimum Inhibitory Concentration (MIC) (S. aureus ATCC 25923): 2.34 µg/mL
- Minimum Inhibitory Concentration (MIC) (S. aureus ATCC 43300): 4.69 µg/mL
- Minimum Inhibitory Concentration (MIC) (S. aureus ATCC 49230): 4.69 µg/mL
- Minimum Inhibitory Concentration (MIC) [1]: 4.69 µg/mL
- Minimum Inhibitory Concentration (MIC) [2]: 2.34 µg/mL
- Minimum Inhibitory Concentration (MIC) [3]: 2.34 µg/mL
- Minimum Inhibitory Concentration (MIC) (E. coli Eco53 (CI)): 18.75 µg/mL
- Minimum Inhibitory Concentration (MIC) (E. coli Eco61 (CI)): 9.38 µg/mL
- Minimum Inhibitory Concentration (MIC) (E. coli Eco75 (CI)): 18.75 µg/mL
- Minimum Inhibitory Concentration (MIC) (P. aeruginosa Pae2 (CI)): 150.00 µg/mL
- Minimum Inhibitory Concentration (MIC) (P. aeruginosa Pae61 (CI)): 37.50 µg/mL
- Minimum Inhibitory Concentration (MIC) (P. aeruginosa Pae82 (CI)): 75.00 µg/mL
- Minimum Inhibitory Concentration (MIC) (S. aureus Sau221 (CI)): 9.38 µg/mL
- Minimum Inhibitory Concentration (MIC) (S. aureus Sau39 (CI)): 2.34 µg/mL
- Minimum Inhibitory Concentration (MIC) (S. aureus Sau89 (CI)): 4.69 µg/mL
SMILES: CC[C@H](C)[C@H](NC(=O)[C@H](CCCNC(=N)N)NC(=O)[C@H](CCC(N)=O)NC(=O)[C@@H](NC(=O)[C@@H](NC(=O)[C@H](CCCNC(=N)N)NC(=O)[C@H](CCCCN)NC(=O)[C@H](Cc1ccccc1)NC(=O)CN)[C@@H](C)CC)C(C)C)C(=O)N[C@@H](CCCCN)C(=O)N[C@@H](CC(=O)O)C(=O)N[C@@H](Cc1ccccc1)C(=O)N[C@@H](CC(C)C)C(=O)N[C@@H](CCCNC(=N)N)C(=O)N[C@@H](CC(N)=O)C(=O)N[C@@H](CC(C)C)C(=O)N[C@H](C(N)=O)C(C)C [GF-17] (H-GFKRIVQRIKDFLRNLV-NH2)
- Minimum Bactericidal Concentration (MBC) (E. coli ATCC 25922): 300.00 µg/mL
- Minimum Bactericidal Concentration (MBC) (P. aeruginosa ATCC 27853): 75.00 µg/mL
- Minimum Bactericidal Concentration (MBC) (S. aureus ATCC 25923): 37.50 µg/mL
- Minimum Bactericidal Concentration (MBC) (S. aureus ATCC 43300): 150.00 µg/mL
- Minimum Bactericidal Concentration (MBC) (S. aureus ATCC 49230): 75.00 µg/mL
- Minimum Bactericidal Concentration (MBC) [1]: 75.00 µg/mL
- Minimum Bactericidal Concentration (MBC) [2]: 4.69 µg/mL
- Minimum Bactericidal Concentration (MBC) [3]: 37.50 µg/mL
- Minimum Bactericidal Concentration (MBC) (E. coli Eco53 (CI)): 75.00 µg/mL
- Minimum Bactericidal Concentration (MBC) (E. coli Eco61 (CI)): 18.75 µg/mL
- Minimum Bactericidal Concentration (MBC) (E. coli Eco75 (CI)): 75.00 µg/mL
- Minimum Bactericidal Concentration (MBC) (P. aeruginosa Pae2 (CI)): 150.00 µg/mL
- Minimum Bactericidal Concentration (MBC) (P. aeruginosa Pae61 (CI)): 150.00 µg/mL
- Minimum Bactericidal Concentration (MBC) (P. aeruginosa Pae82 (CI)): 300.00 µg/mL
- Minimum Bactericidal Concentration (MBC) (S. aureus Sau221 (CI)): 18.75 µg/mL
- Minimum Bactericidal Concentration (MBC) (S. aureus Sau39 (CI)): 9.38 µg/mL
- Minimum Bactericidal Concentration (MBC) (S. aureus Sau89 (CI)): 4.69 µg/mL
- MBC range (bactericidal effect) against Staphylococci (Staphylococci): 4.69 to 150 µg/mL
- Hemolytic activity (red blood cells (RBC)): below 1%
